Where a name gives a salt, the structure may show the parent alone.

What is called melting point is the temperature, or range, at which the solid turns liquid. Take `O=C(O)CC(NC(=O)C1CC(=O)N(c2cccc(NC(=S)NCc3ccccc3)c2)C1)c1cccnc1` (centres unmarked) (as salt: sodium) [Example 20, 3-({5-oxo-1-(3-({(benzylamino)thioxomethyl}amino)phenyl)pyrrolidin-3-yl}carbonylamino)-3-(3-pyridyl)propanoic acid, sodium salt]: the melting point is 230 °C (dec.). For `O=C(O)CC(NC(=O)C1CC(=O)N(c2cccc(NC(=S)NCc3ccc(F)cc3)c2)C1)c1cccnc1` (centres unmarked) (as salt: sodium) [Example 21, 3-((1-{3-(({((4-fluorophenyl)methyl)amino}thioxomethyl)amino)phenyl}-5-oxopyrrolidin-3-yl)carbonylamino)-3-(3-pyridyl)propanoic acid, sodium salt] the value was 230 °C (dec.).

Take `O=C(O)CC(NC(=O)C1CC(=O)N(c2cccc(NC(=S)NCc3ccco3)c2)C1)c1cccnc1` (centres unmarked) (as salt: sodium) [Example 22, 3-({1-(3-({((2-furylmethyl)amino)thioxomethyl}amino)phenyl)-5-oxopyrrolidin-3-yl}carbonylamino)-3-(3-pyridyl)propanoic acid, sodium salt]: the melting point is 240 °C (dec.). To `CC(C)CCNC(=S)Nc1cccc(N2CC(C(=O)NC(CC(=O)O)c3cccnc3)CC2=O)c1` (centres unmarked) (as salt: sodium) [Example 23, 3-({1-(3-({((3-methylbutyl)amino)thiooxomethyl}amino)phenyl)-5-oxopyrroidin-3-yl}carbonylamino)-3-(3-pyridyl)propanoic acid, sodium salt] belongs 250 °C (dec.); to `CCCCNC(=S)Nc1cccc(N2CC(C(=O)NC(CC(=O)O)c3cccnc3)CC2=O)c1` (centres unmarked) (as salt: sodium) [Example 24, 3-{(1-(3-{((butylamino)thioxomethyl)amino}phenyl)-5-oxopyrrolidin-3-yl)carbonylamino}-3-(3-pyridyl)propanoic acid, sodium salt], 235 °C (dec.).
